Test results taken from paper PMC11583597, “Brain uptake pharmacokinetics of albiglutide, dulaglutide, tirzepatide, and DA5-CH in the search for new treatments of Alzheimer’s and Parkinson’s diseases” (Tissue Barriers, 2023).
Like-named read-outs stand apart in the source and are kept apart here. Marks after values point to notes of the source that are not given here.

How the values were obtained:
[1] = In vivo stability of 125I/14C-IRAs in blood/serum (acid precipitation); parameters: species or system male CD-1 mice; conditions: mouse, iv
Experimental: (§1) We measured the stability of the radiolabeled IRAs in brain and blood. Following anesthetization, arterial blood and whole brain were taken at two time points (10 or 60 min) after iv injection of 3 × 10^5 cpm-1×10^6 cpm of ^125I/^14C-IRA in 0.2 ml of BSA/LR. The blood samples were allowed to clot, centrifuged at 3200 ×g for 10 min, and 50 μl of the separated serum was added to 250 μl of BSA-LR. Samples were combined with equal volume 30% TCA (300 μl), mixed, and then centrifuged for 10 min at 5400 ×g. Brains were homogenized in 800 μl of BSA-LR with a bead beater for 30 sec at 4800 rpm twice. Following centrifugation at 5400 ×g for 15 min, a portion of the resulting supernatant was added to an equal volume of 30% TCA, mixed, and then centrifuged at 5400 ×g for 10 min. The radioactivity in the resulting supernatant and pellet (Sup and Pel fractions) for serum and brain was calculated separately, and the percent of radioactivity in the precipitate was calculated using the following equation:(1) %AcidPrecip=100×Pel/Sup+Pel
(§2) To correct for degradation that might have occurred during the processing, ^125I/^14C-IRA was added to non-radioactive arterial whole blood or to whole brain and processed as above. The biological samples were corrected for degradation during processing by dividing their values by those for processing control (Pcon) values and multiplying by 100. This can sometimes result in a value greater than 100%.
(§3) Immediately after counting the radioactivity, the blood and brains from the 10 min and 6 h time points were processed as described in Section 2.5 for in vivo stability. For further comparison, data from the 1 h time point were taken from the original pharmacokinetic uptake study. The ^125I-IRA brain % acid precipitation (%AP) was divided by the ^125I-IRA serum %AP at each time point to calculate the %AP B/S ratio. This value was multiplied by the B/S ratio for each ^125I-IRA to correct for degradation over the 10 min, 1 h, or 6 h time periods. Corrected AP B/S ratios were then corrected for vascular space by subtracting the ^99mTc-Alb B/S ratio within each mouse for the 10 min and 6 h time points (AP corrected delta B/S ratio). For the 1 h time point, the average ^99mTc-Alb B/S ratio (10.03 μl/g) at 10 min across all ^125I-IRAs was used for correction. The AP corrected delta B/S ratio for each ^125I-IRA was then multiplied by the %Inj/ml within each mouse to calculate the AP corrected delta %Inj/g.

[2] = Octanol/buffer partition coefficient (lipid solubility); type: physicochemical
Experimental: We measured the lipid solubility of the IRAs, using octanol and PB. Briefly, 1 × 10^5 counts per minute (cpm) of each ^125I/^14C-IRA were added to triplicate tubes containing equal volumes PB and octanol (Sigma-Aldrich). This solution was vigorously mixed for 1 min and centrifuged at 5500 ×g for 10 min to separate the two phases. Aliquots of 100 μl were taken in duplicate from each phase, and total radioactivity was counted in a gamma counter (Wizard2, Perkin-Elmer) or beta counter (TriCarb 3110TR, Perkin-Elmer). The ratio of the cpm in the octanol phase to the cpm in the buffer phase equates to the mean partition coefficient (Pcoeff) and indicates lipophilicity. The log value for the coefficient can be either greater than unity, indicative of a lipophilic compound, or less than unity, indicative of a hydrophilic compound.

[3] = In vivo stability of 125I/14C-IRAs in brain (acid precipitation); parameters: species or system male CD-1 mice; conditions: mouse, iv
Experimental: as §1, §2, §3

[4] = parameters: species or system male CD-1 mice; conditions: mouse, in vivo, iv
Experimental: Anesthetized mice were co-injected iv with 3 × 10^5 cpm-1×10^6 cpm ^125I/^14C-IRA and 5 × 10^5 cpm of ^99mTc-Alb in 0.2 ml BSA-LR with or without 1 μg of the non-radioactive IRA. Fifteen minutes after iv injection, blood was collected from the right carotid artery, and the whole brain was removed and weighed. Samples were counted for radioactivity. Results were expressed as delta B/S ratios in units of μl/g.

[5] = mouse, in vivo, iv
Experimental: The capillary depletion method was used to separate cerebral capillaries from brain parenchyma. Anesthetized mice received an iv injection of 3 × 10^5-1×10^6 cpm of an ^125I-IRA with 5 × 10^5 cpm ^99mTc-Alb BSA-LR and 15 min later, blood and brains were collected. Whole brains were homogenized with physiological buffer (10 mM HEPES, 141 mM NaCl, 4 mM KCl, 2.8 mM CaCl2, 1 mM MgSO4, 1 mM NaH2PO4, and 10 mM D-glucose adjusted to pH 7.4) using two different sized glass dounce homogenizers, mixed with 26% dextran (Sigma-Aldrich), and centrifuged at 5400 ×g for 15 min at 4°C.[69] The pellet, containing the capillaries, and the supernatant, containing the brain parenchymal/interstitial fluid space, were carefully separated. The ratio of ^125I-IRA radioactivity in the supernatant (parenchyma) was corrected for vascular space by subtracting the B/S ratio of ^99mTc-Alb in the supernatant. The corrected parenchyma/serum and capillary/serum ratios (μl/g) were calculated as (cpm/g tissue)/(cpm/μl) serum.

[6] = parameters: species or system male CD-1 mice; conditions: mouse, in vivo, iv; remark: listed apart in the source
Experimental: (§4) Following anesthetization, the jugular vein and right carotid artery were exposed. Mice were given a jugular vein injection of 0.2 ml BSA-LR containing 3 × 10^5 cpm-1×10^6 cpm of an ^125I/^14C-labeled IRA and 5 × 10^5 cpm of ^99mTc-Alb. Blood samples were collected from the carotid artery at various time points from 1 to 60 min after iv injection (see Figure 1). Mice were then decapitated, and their brains were removed and weighed. After clotting, the arterial blood was centrifuged at 3200 ×g for 10 min. Levels of radioactivity in serum (50 μl) and brain were measured in a gamma counter for ^125I and ^99mTc for 3 min. After ^99mTc decay, ^14C-DA5-CH samples were solubilized with Solvable (Sigma), transferred to scintillation vials containing Ecoscint (National Diagnostics) and ^14C was measured in a beta counter. Sample injection checks were taken throughout the course of the study to calculate the mean injected cpm/mouse. To determine the rate of ^125I/^14C-IRA clearance from the serum, the results were expressed as the percentage of an injected dose in each ml of serum (%Inj/ml), which was calculated by dividing the cpm in a ml of serum (cpm/ml serum) by the cpm injected into the mouse (cpm/Inj):
(2) %Inj/ml=100×cpm/mlserum/meancpm/Inj
The log(%Inj/ml) was plotted against time to calculate the rate of clearance from the serum. To calculate the half-time clearance in minutes, the inverse slope […] of the curve for each IRA was multiplied by 0.301 (log10[2]). The blood and brain cpm data were used for the measurement of brain influx and initial volume of distribution in brain as described in Section 2.7.

[7] = Brain influx and initial volume of distribution (multiple-time regression analysis); parameters: species or system male CD-1 mice; conditions: mouse, in vivo; for Blood to Brain Unidirectional Influx Rate (Ki): iv
Experimental: as §4
To calculate the blood-to-brain unidirectional influx constant (Ki), multiple-time regression analysis was used as first described by Patlak, Blasberg, and Fenstermacher.[67],[68] The brain/serum (B/S) ratios (μl/g) of the ^125I/^14C-IRA in each gram of brain were calculated from the data in Section 2.6 and plotted against their respective exposure times as previously applied by Rhea et al. 2018.[69] Exposure time differs from clock time in that exposure time corrects for clearance of the ^125I/^14C-IRA from blood and thus, better represents the amount of ^125I/^14C-IRA available for BBB transport at any given time. Delta B/S ratios were calculated by subtracting the vascular space as measured by the B/S ratio for ^99mTc-Alb from the B/S ratio for the respective ^125I/^14C-IRA. Thus, delta B/S ratios represent material that has been taken up by or has crossed the BBB. The slope of the linear portion of the relation between delta B/S ratios and exposure time defines Ki (μl/g-min) and is reported with its error term. This represents Model 1 for DA5-CH. The y-intercept of this linear portion of the relation defines Vi, (μl/g), the initial volume of distribution in brain at t = 0, which is the functional volume per unit brain mass of a soluble compound that exchanges rapidly and reversibly with plasma.[68] Vi consists of the vascular space (Vv) and any residual space after accounting for Vv and usually represents vascular binding (Vr). Since we correct each ^125I/^14C-IRA delta B/S for vascular space, our y-intercept values likely represent vascular binding. For DA5-CH, there appeared to be rapid, early transport that would indicate a Vr equal to 0. Therefore, using Vr equal to 0, we calculated an estimate of this new Ki and refer to it throughout the manuscript as Model 2.

[8] = parameters: species or system male CD-1 mice; conditions: mouse, in vivo, iv; remark: listed apart in the source
Excerpt: This value is then multiplied by the %Inj/ml of each ^125I/^14C-IRA at each time point. After plotting the %Inj/g at each time point for each IRA, we calculated the area under the curve (AUC) to better identify the amount of brain exposure to each IRA over the entire time course.

[9] = mouse, in vivo; cited from earlier work
Experimental: The rank order of IRAs showing significant brain uptake 1 h after iv injection with respect to AUCs is similar, but not identical to the rank order of their Ki’s (see Figures 5b and 3b). Less similar is the rank order of IRAs for uptake into brain parenchyma defined as the percent reaching the brain that was in its parenchyma vs. its capillaries. The rank order of parenchymal uptake was specifically DA4-JC (89.7%) = albiglutide (BAF) (89.4%) > DA3-CH (86%) > exenatide (84.2%) > Peptide 17 (73.2%) > lixisenatide (66.8%) > dulaglutide (BAF) (61.8%) > DA5-CH (57.6%) > Peptide 21 (43.6%) > liraglu ...

[10] = mouse, in vivo, iv; cited from earlier work
Excerpt: The unidirectional blood-to-brain influx rate (Ki) calculated from Figure 2c for all four IRAs tested is graphed with previously calculated Ki’s for other IRAs[50] in Figure 3 by rank.

[11] = mouse, in vivo, iv; cited from earlier work; remark: listed apart in the source

Row | Substance | Percentage of labeled IRA intact, Serum, 10 min [1] | Percentage of labeled IRA intact, Serum, 60 min [1] | Lipid Solubility Partition Coefficient ([2]; pH 7.5) | Log Partition Coefficient (Log P) ([2]; pH 7.5) | Percentage of labeled IRA intact, Whole Brain, 10 min [3] | Percentage of labeled IRA intact, Whole Brain, 60 min [3] | Whole Brain delta brain/serum ratio, Without unlabeled IRA [4] | Percent in Parenchyma vs. Capillaries [5] | Half-Time Serum Clearance (t1/2) [6] | Blood to Brain Unidirectional Influx Rate (Ki) [7] | Percent of injected dose taken up per gram brain (%Inj/g), 10 min [8] | Percent of injected dose taken up per gram brain (%Inj/g), 60 min [8] | Percent of injected dose taken up per gram brain (%Inj/g), 15 min [8] | Log Partition Coefficient (Log P) ([2]; shake-flask octanol / sodium phosphate buffer pH 7.5 (PB), radiolabelled IRA, gamma or beta counting, mean ± SE, triplicate tubes) | Probable Ki of DA5-CH [7] | Probable Vr of DA5-CH [7] | Percent reaching the brain that was in parenchyma vs. capillaries [9] | Blood to Brain Unidirectional Influx Rate (Ki) [10] | %Inj/g by 60 min [11]
1 | HGEGTFTSDVSSYLEEQAAKEFIAWLVKGGG [Dulaglutide (BAF)] | 84.67 ± 0.8% | 39.1 ± 1.4^a % | 0.0102 ± 0.0007 | -1.991 ± 0.0287 | 58.42 ± 0.3% | 37.47 ± 4.1% | 17.86 ± 0.99 µL/g | 61.8% | 6.02 min | 1.095 ± 0.072 µL/g/min | 0.20 %Inj/g | 0.33 %Inj/g | – | – | – | – | – | – | –
2 | HGEGTFTSDVSSYLEGQAAKEFIAWLVKGR [Albiglutide (BAF)] | 53.96 ± 0.4% | 20.71 ± 1.3^a % | 0.0132 ± 0.0040 | -1.916 ± 0.121 | 43.35 ± 2.9% | 40.9 ± 9.3% | 39.3 ± 1.50 µL/g | 89.4% | 6.14 min | 1.379 ± 0.086 µL/g/min | – | – | 0.36 %Inj/g | – | – | – | – | – | –
3 | YXEGTFTSDYSIYLDKQAAXEFVNWLLAGGPSSGAPPPSKRRQRRKKRGY-NH2 [DA5-CH, Experimental balanced GIPR/GLP-1R dual agonist; Peptide 18 of Finan et al. with extension; custom synthesized by AnaSpec] | 83.83 ± 4.9% | 49.35 ± 2.5^a % | – | – | 79.7 ± 12.9% | 77.61 ± 22.3% | 26.25 ± 8.07 µL/g | 57.6% | 2.03 min | 0.242 ± 0.128 µL/g/min | – | – | – | -2.183 ± 0.0281 | 0.24 to 2.5 µL/g/min | 0 to 11.2 µL/g | – | – | –
4 | exenatide: FDA-approved IRA tested in the earlier study (ref 50) | – | – | – | – | – | – | – | – | – | – | – | – | – | – | – | – | 84.2% | 0.4231 µL/g/min | 0.56 %Inj/g
